One series deals with H1975. The experiment in a line: Cell proliferation by MTS method, H1975. Type of series: cell-based. To be noted: Homo sapiens, NCI-H1975, Lung Cancer. An excerpt: (§1) (2) Detection of Cell Proliferation by MTS Method
(§2) The MTS assay is a method for indirectly determining the number of living cells via colourimetric method. MTS is a newly synthesised tetrazole compound that reflects cell viability, which can be reduced by succinate dehydrogenase in the mitochondria of living cells to an orange-coloured formazan with an absorbance of the reduced product measured at 490 nm being in proportion to the number of living cells, thus reflecting the cell viability. This assay can be used to evaluate the effect of the compound on the proliferation of pancreatic cancer cells, thereby determining the inhibitory effect of the compound on the proliferation of pancreatic cancer cells and to calculate the IC^50. Each cells were inoculated uniformly into a 96-well plate at a density of 1-20×10^3 cells/well, 100 μL per well, and placed in a constant temperature incubator until the cells adhered to the wall. […] Under light-proof conditions, MTS was added and well mixed, the mixture was placed in a constant temperature incubator at 37° C., and the light absorption value were measured using an enzyme marker at 490 nm and the experiment was repeated for three times, IC50 was calculated with GraphPad5 Prism software.
(Tetrazolium assays rely on reduction of a dye to a coloured formazan, in cell work by metabolically active cells.)

The next series concerns PC-9. The experiment in a line: Cell proliferation by MTS method, PC-9. The settings on record: Homo sapiens, Lung Cancer. Type of series: cell-based.
Text: as §1, §2

The subject of a further series is H522. As to the kind of experiment: Cell proliferation by MTS method, H522. It is filed as cell-based. The settings on record: Homo sapiens, NCI-H522, Lung Cancer.
Text: as §1, §2

The test system of another series is PLC/PRF-5. The experiment in a line: Cell proliferation by MTS method, PLC/PRF-5. It is filed as cell-based. The settings on record: Homo sapiens, Liver Cancer.
Text: as §1, §2

The subject of another series is HCCC9810. The experiment in a line: Cell proliferation by MTS method, HCCC9810. It is filed as cell-based. The settings on record: Liver Cancer.
Text: as §1, §2

In the next series the test system is CFPAC-1. The experiment in a line: Cell proliferation by MTS method, CFPAC-1. Type of series: cell-based. The settings on record: Homo sapiens, Pancreatic Cancer.
Text: as §1, §2

The subject of a further series is SMMC7721. The experiment in a line: Cell proliferation by MTS method, SMMC7721. Type of series: cell-based. The settings on record: Homo sapiens, SMMC-7721, Liver Cancer.
Text: as §1, §2

The subject of a further series is BXPC3. The experiment in a line: Cell proliferation by MTS method, BXPC3. The settings on record: Homo sapiens, BXPC-3, Pancreatic Cancer. Type of series: cell-based.
Text: as §1, §2

A further series has as its system H1299. As to the kind of experiment: Cell proliferation by MTS method, H1299. Type of series: cell-based. The settings on record: Homo sapiens, NCI-H1299, Lung Cancer.
Text: as §1, §2

The next series deals with A549. The experiment in a line: Cell proliferation by MTS method, A549. It is filed as cell-based. To be noted: Homo sapiens, Lung Cancer.
Text: as §1, §2

For series [1], the system named is human pancreatic cancer cells PANC-1. As to the kind of experiment: Subcutaneous tumor-bearing experiment in nude mice, PANC-1.
Method: (1-10)×10^6 human pancreatic cancer cells PANC-1 and MIAPACA-2 were injected subcutaneously into the right side of the back of immunodeficient mice (BALB/c-nude, nude mice, 5-6 weeks), and when the tumours grew to about 100 mm^3, the mice were evenly divided into five groups, i. e. blank control group; 5 mg/kg WB737 low-dose group; 10 mg/kg WB737 medium-dose group; 20 mg/kg WB737 high-dose group; 10 mg/kg IACS-010759 positive control group; all the above compounds were formulated with 0.5% MC and administered by gavage. Tumour volume and mouse weight were measured every four days, and tumour volume was calculated according to the formula of volume=length×width^2×0.52. After 3 weeks post-administration, mice were sacrificed and subcutaneous tumours were peeled off, weighed and photographed.
In another series the test system is HepG2. The experiment in a line: Cell proliferation by MTS method, HepG2. Type of series: cell-based. The settings on record: Homo sapiens, Liver Cancer.
Text: as §1, §2

The next series deals with MIAPACA-2. As to the kind of experiment: Cell proliferation by MTS method, MIAPACA-2. It is filed as cell-based. The settings on record: Homo sapiens, MIA PaCa-2, Pancreatic Cancer.
Text: as §1, §2

Series [2] deals with mouse pancreatic cancer cells Pan02-Luci. As to the kind of experiment: Pancreatic cancer liver metastasis model, Pan02-Luci in C57BL/6 mice. It is filed as in vivo. The source says:
(1) Animal Experiment on Pancreatic Cancer Liver Metastasis
Pancreatic cancer is a malignant tumor of the gastrointestinal tract, with rapidly progressing condition, high degree of progression, and very limited clinical treatments, and metastasis is very likely to occur in the terminal stage, among which liver metastasis is the most common, and the occurrence of liver metastasis is also an important manifestation of the seriousness of the disease. In the present invention, by injecting pancreatic cancer cells into the spleen, the tumour cells will directed metastasize to the liver, thereby simulating the occurrence and metastasis process of pancreatic cancer liver metastasis. […] Fluorescence detection of mice was performed using the Small Animal In vivo Imaging Instrument (IVIS), according to the obtained fluorescence values, the mice were divided into control group, WB737 5 mg/kg/d low dose group, 10 mg/kg/d medium dose group and 20 mg/kg/d high dose group, and IACS-010759-10 mg/kg positive compound group, and the mean fluorescence values of each group were ensured to be consistent. […] Metastasiss were recorded using small animal in vivo imaging instrument (IVIS) during the experiment, and body weight of the mice was measured every 3-4 days. […]

The subject of another series is DU145. As to the kind of experiment: Cell proliferation by MTS method, DU145. Type of series: cell-based. The settings on record: Homo sapiens, DU-145, Prostate Cancer.
Text: as §1, §2

The subject of a further series is H23. The experiment in a line: Cell proliferation by MTS method, H23. Type of series: cell-based. The settings on record: Homo sapiens, NCI-H23, Lung Cancer.
Text: as §1, §2

“Also recorded” adds a separate entry of the source.

One may read the IC50 as the midpoint of a concentration-inhibition curve. Higher therefore signals weaker potency.

Consider `Cn1c(C(=O)N2CCN(Cc3ccc(OCC(F)(F)F)cc3)CC2)cc2ccc(Oc3cnc(-c4nc(-c5ccc(C(F)(F)F)cc5)no4)cn3)cc21` [Example 6, (6-((5-(3-(4-(trifluoromethyl)phenyl)-1,2,4-oxadiazol-5-yl)pyrazin-2-yl)oxy)1-methyl-1H-indol-2-yl)(4-(4-(2,2,2-trifluoroethoxy)benzyl)piperazin-1-yl)methanone], for which the half-maximal inhibitory concentration (IC50) came out at 11.7 nM in the series with H1975; 21.3 nM in the series on PC-9; 12 nM in the series with H522; 1.8 nM in the series with PLC/PRF-5; 73.3 nM in the series on HCCC9810; 3.1 nM in the series on CFPAC-1. Also, the IC50 with SMMC7721 is 6.4 nM; in the series with BXPC3 it was 7.6 nM; in the series on H1299, 26 nM; in the series on A549, 11.9 nM; with HepG2, 12 nM; in the series with MIAPACA-2, 8.8 nM. In addition, the values for the concentration for half-maximal inhibition (IC50) with DU145 and in the series on H23 were 12.4 nM and 2.9 nM, respectively. Further, the “effect on the body weight of mice” value in [1] (PANC-1 subcutaneous model, gavage, WB737 5-20 mg/kg, IACS-010759 10 mg/kg, FIG. 2D/5C) was “no significant effect on the body weight of mice; also recorded: good tolerability”. In addition, in series [1] (PANC-1 subcutaneous, BALB/c-nude mice, 5, 10, 20 mg/kg by gavage, 3 weeks, FIG. 2), the “tumor growth (tumor volume and tumor weight)” value is “significantly inhibits the growth of pancreatic tumour”. For the same compound, the “phosphorylation of STAT3^Y705/S727 bifunctional phosphorylation site in tumour tissue (WB and IHC)” value in [1] (PANC-1 tumour tissues, FIG. 2E and 2F) is given as “dose-dependently inhibits phosphorylation”. Further, the “liver metastasis of tumours” value in series [2] (Pan02-Luci injected into spleen, C57BL/6 mice, 5, 10, 20 mg/kg/d by gavage, FIG. 4A/4B) is given as “dose-dependently inhibits liver metastasis of tumours”. The survival of mice entry in series [2] (pancreatic tumour liver metastasis model (Pan02), 5, 10, 20 mg/kg by gavage once a day, FIG. 4C) is on record as “significantly prolongs the survival of mice”.

The values above are taken from patent US12448372B2, “Class of triaromatic compounds targeting bifunctional phosphorylation site of STAT3 and applications thereof” (SHANGHAI YUYAO BIOTECH LTD., priority 2019, dated 2025).
